From patent US20220073536A1 (Rigel Pharmaceuticals, Inc., priority 2003, published 2022) come the findings set out here.

Structures are written as SMILES.

For test [1], the system named is cultured human mast cells (CHMC). Description: CHMC low cell density IgE activation: tryptase assay. The settings on record: Homo sapiens, Mast cell, low cell density CHMC, IgE activation, tryptase, 3 pt; read-out: LD Tryptase, CHMC, IgE, 3 pt. The format is cell-based. Summed up: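 Anti-IgE-driven degranulation of cultured human mast cells at low density, 1000–1500 cells/well, was induced over 30 min at 37 °C. It was scored by supernatant tryptase activity on a fluorogenic substrate.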

For test [2] the test system is unchanged. Description: CHMC low cell density ionomycin activation: tryptase assay. The format is cell-based. The settings on record: Homo sapiens, Mast cell, low cell density CHMC, tryptase, 3 pt, read-out: LD Tryptase, CHMC, Iono, 3 pt.

On to `CC(=O)N1CCN(c2ccc(Nc3ncc(F)c(NC4CCCC4)n3)cc2)CC1` [Compound 1156, N2-[4-(4-Acetylpiperazino)phenyl]-N4-cyclopentyl-5-fluoro-2,4-pyrimidinediamine], for which the results for the IC50 in test [1] and in test [2] were less than 10 µM and greater than 10 µM, respectively.
Regarding `CN1CCN(c2ccc(Nc3ncc(F)c(NC4CCCC4)n3)cc2)CC1` [Compound 1157, N4-Cyclopentyl-5-fluoro-N2-[4-(4-methylpiperazino)phenyl]-2,4-pyrimidinediamine], the IC50 in test [1] is less than 10 µM; in test [2], greater than 10 µM.
For `Fc1cnc(Nc2cccc(N3CCOCC3)c2)nc1NC1CCCC1` [Compound 1158, N4-Cyclopentyl-5-fluoro-N2-(3-morpholinophenyl)-2,4-pyrimidinediamine] the same measures were less than 10 µM and greater than 10 µM.
Turning to `CC(=O)N1CCN(c2cccc(Nc3ncc(F)c(NC4CCCC4)n3)c2)CC1` [Compound 1159, N2-[3-(4-Acetylpiperazino)phenyl]-N4-cyclopentyl-5-fluoro-2,4-pyrimidinediamine], the figures for the IC50 in test [1] and in test [2] were less than 10 µM and greater than 10 µM, respectively.
Taken in the same sequence, the figures for `CN1CCN(c2cccc(Nc3ncc(F)c(NC4CCCC4)n3)c2)CC1` [Compound 1160] were less than 10 µM and greater than 10 µM.
Regarding `CCOC(=O)N1CCN(c2cccc(Nc3ncc(F)c(NC4CCCC4)n3)c2)CC1` [Compound 1161], the IC50 in test [1] is less than 10 µM; in test [2], greater than 10 µM.
Taken in the same sequence, the figures for `Fc1cnc(Nc2ccc(N3CCOCC3)cc2)nc1NC1CCCCC1` [Compound 1162, N4-Cyclohexyl-5-fluoro-N2-(4-morpholinophenyl)-2,4-pyrimidinediamine] were less than 10 µM and greater than 10 µM.
Taken in the same sequence, the figures for `CC(=O)N1CCN(c2ccc(Nc3ncc(F)c(NC4CCCCC4)n3)cc2)CC1` [Compound 1163, N2-[4-(4-Acetylpiperazino)phenyl]-N4-cyclohexyl-5-fluoro-2,4-pyrimidinediamine] were less than 10 µM and greater than 10 µM.
Taken in the same sequence, the figures for `CCOC(=O)N1CCN(c2ccc(Nc3ncc(F)c(NC4CCCCC4)n3)cc2)CC1` [Compound 1165, N4-Cyclohexyl-N2-[4-(4-ethoxycarbonylpiperazino)phenyl]-5-fluoro-2,4-pyrimidinediamine] were less than 10 µM and less than 10 µM.
With `Fc1cnc(Nc2cccc(N3CCOCC3)c2)nc1NC1CCCCC1` [Compound 1166, N4-Cyclohexyl-5-fluoro-N2-(3-morpholinophenyl)-2,4-pyrimidinediamine], the IC50 in test [1] was less than 10 µM; in test [2] it was greater than 10 µM.
For `CC(=O)N1CCN(c2cccc(Nc3ncc(F)c(NC4CCCCC4)n3)c2)CC1` [Compound 1167, N2-[3-(4-Acetylpiperazino)phenyl]-N4-cyclohexyl-5-fluoro-2,4-pyrimidinediamine] the same measures were less than 10 µM and greater than 10 µM.
Taken in the same sequence, the figures for `CN1CCN(c2cccc(Nc3ncc(F)c(NC4CCCCC4)n3)c2)CC1` [Compound 1168, N4-Cyclohexyl-5-fluoro-N2-[3-(4-methylpiperazino)phenyl]-2,4-pyrimidinediamine] were less than 10 µM and greater than 10 µM.
`CCOC(=O)N1CCN(c2cccc(Nc3ncc(F)c(NC4CCCCC4)n3)c2)CC1` [Compound 1169, N4-Cyclohexyl-N2-[3-(4-ethoxycarbonylpiperazino)phenyl]-5-fluoro-2,4-pyrimidinediamine]: the IC50 in test [1] is less than 10 µM; in test [2] it was greater than 10 µM.
Taken in the same sequence, the figures for `O=C(Nc1ccc(Nc2ncc(F)c(NC3CCCC3)n2)cc1)c1ccccc1` [Compound 1170, N2-(4-Benzamidophenyl)-N4-cyclopentyl-5-fluoro-2,4-pyrimidinediamine] were less than 10 µM and greater than 10 µM.
`COc1cc(C(N)=O)c(Nc2ncc(F)c(NC3CCCC3)n2)cc1OCc1ccccc1` [Compound 1171, N2-(2-Aminocarbonyl-5-benzoxy-4-methoxyphenyl)-N4-cyclopentyl-5-fluoro-2,4-pyrimidinediamine]: the IC50 in test [1] is less than 10 µM; in test [2], greater than 10 µM.
